Test results as given in patent US11679102B2, “Method for inhibiting virus infection and replication” (Chang Gung University, priority 2020, dated 2023).

How the values were obtained:
RD cells = assay: Lipid peroxidation (BODIPY 581/591-C11, flow cytometry) in RSL3-treated RD cells pretreated with ferroptosis inhibitors
Procedure: (§1) Next, the treated cells and the infected cells were stained by incubating with 1 μM BODIPY™ 581/591-C11 (Invitrogen) at 37° C. for 30 minutes, and then collected using trypsin (Gibco). Thereafter, the stained cells were subjected to centrifugation at 300 g for 10 minutes to remove trypsin and the cell culture media, and then resuspended in 500 μL of fresh PBS. Subsequently, at least 10000 cells per sample were subjected to flow cytometry analysis using Attune NxT flow cytometer (Invitrogen), and FlowJo software was used for viewing and analyzing the thus obtained data. The BODIPY™ 581/591-C11 levels in the control groups (i.e., DMSO-treated cells and mock-infected cells) were set as 100%.
Wild-type RD cells were seeded in 12-well plates at a concentration of 1×10^5 cells per well. […] Subsequently, the pretreated cells were treated with 1 μM of RSL3 for 36 hours, or the same amount of DMSO serving as control group for comparison purpose.
Thereafter, these cells were subjected to staining with BODIPY™ 581/591-C11 (Invitrogen) and flow cytometry analysis according to the experimental procedures as described in the preceding sub-section, entitled “A. Determining lipid peroxidation level in virus-infected cells,” of this Example. The BODIPY™ 581/591-C11 levels in the control groups (i.e., DMSO-treated cells and mock-infected cells) were set as 100%.

[1] = system: RD-sgACSL4^+/+ and RD-sgACSL4^−/− cells; assay: Lipid peroxidation (BODIPY 581/591-C11) in RSL3-treated RD-sgACSL4+/+ control and RD-sgACSL4−/− knockout cells; details: 1 μM RSL3, 36 hours, FIG. 9 upper panel
Procedure: Specifically, the RD-sgACSL4^−/− knockout and RD-sgACSL4^+/+ control cells were seeded in 12-well plates at a concentration of 1×10^5 cells per well.
as §1

CV-A6 [2] = type: cell-based, Coxsackie virus A6; details: pretreated 1 hour at 0-120 μM, CV-A6 m.o.i. 0.01, 36 h.p.i.; FIG. 12
CV-A6-infected RD cells = type: cell-based, human; details: wild-type RD cells pretreated 1 hour with ferrostatin-1 100 μM or troglitazone 20 μM, then CV-A6 m.o.i. 0.01 for 36 hours; vs mock-infected; FIG. 11 lower panel
CV-A6 [3] = type: cell-based, Coxsackie virus A6; details: pretreated 1 hour with ferrostatin-1 100 μM or troglitazone 20 μM; m.o.i. 0.01; 24, 36, 48 h.p.i.; FIG. 14
HCoV-229E [4] = assay: Cell viability of HCoV-229E-infected LLC-MK2 cells (CellTiter96 Aqueous One Solution); type: cell-based, human coronavirus 229E; details: pretreated 1 hour at 0-120 μM, HCoV-229E m.o.i. 0.01, 7 d.p.i.; FIG. 13
Procedure: Wild-type RD cells and LLC-MK2 cells were seeded at a concentration of 2000 cells per well into respective wells of 96-well plates containing DMEM and 10% FBS. […] Mock-infected RD and LLC-MK2 cells served as control groups. CV-A6-infected and mock-infected RD cells, and HCoV-229E-infected and mock-infected LLC-MK2 cells were subjected to cell viability determination using CellTiter96 Aqueous One Solution Cell Proliferation Assay (Promega).

HCoV-OC43 = assay: Virus titer of HCoV-OC43 in infected Vero E6 cells (viral plaque assay); details: pretreated 1 hour with ferrostatin-1 40 μM or troglitazone 10 μM; m.o.i. 0.01; 1, 2, 3 d.p.i.; FIG. 15 lower panel
HCoV-229E [5] = assay: Virus titer of HCoV-229E in infected LLC-MK2 cells (viral plaque assay); details: pretreated 1 hour with ferrostatin-1 40 μM or troglitazone 10 μM; m.o.i. 0.01; 1, 2, 3 d.p.i.; FIG. 15 upper panel

| SMILES | Lipid peroxidation level in RSL3-treated cells compared with DMSO-treated cells (RD cells; wild-type RD cells, 1 μM RSL3, 36 hours, FIG. 11) | Induction of lipid peroxidation in cells with normal ACSL4 expression ([1]; RD-sgACSL4^+/+ control cells) | Induction of lipid peroxidation in ACSL4 knockout cells ([1]; RD-sgACSL4^−/− knockout cells) | RSL3-induced increase in lipid peroxidation level (relative BODIPY 581/591-C11 level) (RD cells; wild-type RD cells pretreated 1 hour with ferrostatin-1 100 μM or troglitazone 20 μM, then 1 μM RSL3 for 36 hours, vs DMSO control, FIG. 11 upper panel) | Cell viability of CV-A6-infected RD cells (CV-A6 [2]) | CV-A6-induced increase in lipid peroxidation level (relative BODIPY 581/591-C11 level) (CV-A6-infected RD cells) | Viral yields (virus titer) of CV-A6 in infected RD cells vs DMSO control group (CV-A6 [3]) | Cell viability of HCoV-229E-infected LLC-MK2 cells (HCoV-229E [4]) | Viral yields (virus titer) of HCoV-OC43 in infected Vero E6 cells vs DMSO control group (HCoV-OC43) | Viral yields (virus titer) of HCoV-229E in infected LLC-MK2 cells vs DMSO control group (HCoV-229E [5]) |
| --- | --- | --- | --- | --- | --- | --- | --- | --- | --- | --- |
| COC(=O)c1ccc([C@@H]2c3[nH]c4ccccc4c3C[C@@H](C(=O)OC)N2C(=O)CCl)cc1 [RSL3] | significant increase | effectively induce lipid peroxidation | unable to induce lipid peroxidation | – | – | – | – | – | – | – |
| CCOC(=O)c1ccc(NC2CCCCC2)c(N)c1 [ferrostatin-1] | – | – | – | significantly diminished | increasing cell viability | significantly diminished | significantly lower | increasing cell viability | significantly lower | significantly lower |
